From PMC10987543 (Cell Death Discovery, 2024)
Entries after “also recorded” stand apart in the source; their conditions may differ. Ends that are not written are not given here.

What was measured:
HUVECs = assay: BrdU incorporation cell proliferation assay; type: cell-based, human; settings: at a concentration in which CKS1 did not induce LDH release, N = 3
Description: One thousands cells were seeded in wells of a 96-well plate. The cells were treated with the indicated concentration of CKS1 immediately after seeding. Forty-eight hours later, 5-bromo-2’-deoxyuridine (BrdU) was added to each well. Twenty four hours later, BrdU incorporation was quantified using the BrdU cell proliferation assay kit (Cell Signaling Technology, Danvers, MA) following the manufacturer’s instructions.

4T1 cells [1] = assay: JC-1 mitochondrial membrane potential live cell imaging; type: cell-based, murine; settings: 100 µM
Description: (§1) Fluorescence labeling of cells was performed by seeding 5.0 × 10^4 4T1 cells in a 35 mm dish on a collagen-coated No. 1.5 coverslip with a 14 mm glass diameter (MatTek, Ashland, MA). After overnight incubation, the cells were washed once with serum-free media and replaced with fresh serum-free media. For cell cytosol labeling, Calcein-AM (Thermo Fisher Scientific, C1430) was added at a final concentration of 5 µg/mL and incubated for 10 min. For mitochondrial membrane labeling, JC-1 (Thermo Fisher Scientific, T3168) was added at a final concentration of 10 µg/mL and incubated for 10 min. To monitor the activity of caspases, CellEvent Caspase-3/7 Red detection reagents (Thermo Fisher Scientific, C10423) were used following the manufacturer’s instructions. For nuclear staining, Hoechst 33342 (Cell Signaling Technology, #4082) was added at a final concentration of 5 µg/mL and incubated for 10 min.
(§2) Cells were imaged on either a Zeiss LSM 700 or a 3i spinning disk confocal microscope. Samples were imaged with optimized microscope settings. […]
(§3) Image processing was performed using Fiji software. […] For quantification, CellProfiler was used. After cell segmentation based on the nucleus, the intensity of the signal of interest was quantified for each cell. Based on the intensity, each cells were labeled as positive or negative and the fraction of positive cells was calculated.

4T1 murine TNBC cells = assay: Real-time cell viability assay (xCELLigence RTCA); type: cell-based; settings: serum-free media, dose-dependent, representative of N = 3
Description: Three thousand cells were seeded in the wells of an xCELLigence RTCA E-plate 16 (Agilent, Santa Clara, CA). After the cells adhered to the plate, the media was replaced with serum-free media, and the cells were treated with CKS1 at the indicated concentrations. The viability of the cells was monitored using the xCELLigence RTCA analyzer (Agilent).

4T1 cells [2] = assay: LDH release assay (CyQUANT); type: cell-based, murine; settings: 6 h, indicated concentrations, normalized to lysis buffer
Description: Ten thousand cells were seeded in a 96-well plate and incubated overnight. The cells were washed once, and the medium was replaced with serum-free media. Cells were treated with CKS1 for the indicated time and concentration. CyQUANT LDH cytotoxicity assay (Thermo Fisher Scientific) was used following the manufacturer’s instructions to measure the release of LDH. LDH release was normalized to the amount of LDH released from cells treated with lysis buffer.

caspase-3 or caspase-7 = assay: CellEvent Caspase-3/7 live cell imaging; type: cell-based, murine; settings: 4T1 cells, 100 µM
Description: as §1, §2, §3

4T1 cells [3] = assay: Calcein-AM live cell imaging of cytosol release; type: cell-based, murine
Description: as §1
Cells were imaged on either a Zeiss LSM 700 or a 3i spinning disk confocal microscope. Samples were imaged with optimized microscope settings. Z-stack, time-lapse, or multi-channel acquisition settings were adjusted based on the experimental requirements. Images were then acquired with the appropriate excitation and emission wavelengths for each fluorophore.
Image processing was performed using Fiji software. For each image/video, the brightness and the contrast were adjusted. The time stamp and the scale bar were added. For quantification, CellProfiler was used. After cell segmentation based on the nucleus, the intensity of the signal of interest was quantified for each cell. Based on the intensity, each cells were labeled as positive or negative and the fraction of positive cells was calculated.

4T1 cells [4] = assay: Transmission electron microscopy of treated cells; type: cell-based, murine; settings: 100 µM
Description: Samples were fixed in 2.5% glutaraldehyde, 3 mM MgCl2 in 0.1 M sodium cacodylate buffer, pH 7.2 overnight at 4 °C. After buffer rinse, samples were postfixed in 2% osmium tetroxide in 0.1 M sodium cacodylate for at least 1 h (no more than two) on ice in the dark. After osmium, samples were rinsed in 0.1 M Maleate buffer (pH 6.2), followed by uranyl acetate in 0.1 M Maleate (0.22 µm filtered, 1 h, dark), dehydrated in a graded series of ethanol and embedded in Epon (PolySci) resin. Samples were polymerized at 60 °C overnight. Thin sections, 60–90 nm, were cut with a diamond knife on a Leica UCT ultramicrotome and picked up with 2 × 1 mm Formvar copper slot grids. Grids were stained with 2% uranyl acetate (aq.) followed by lead citrate and observed with a Hitachi 7600 TEM at 80 kV. Images were captured with an AMT CCD XR80 (8-megapixel camera—side mount AMT XR80—high-resolution high-speed camera).

CT26 tumors = assay: CT26 colon carcinoma model, intratumoral treatment; type: in vivo, Balb/c mice; settings: 40 mg/kg intratumoral daily from day 7, N = 10
Description: The protocols used in this study were approved by the Institutional Care and Use Committee at Johns Hopkins Medical Institutions. Four- to eight-week-old female Balb/c mice were obtained from Charles River (Wilmington, MA). For the 4T1 […] model, 2.5 × 10^4 4T1 cells were injected into the first mammary fat pad of each mouse. For the CT26 colon carcinoma model, 1.0 × 10^6 CT26 cells were injected subcutaneously in the left flank. The sample size was determined so that the final distribution would be close to normal distribution. After 1 week, the animals were randomized into control and CKS1 treatment. During the randomization, the mice were kept in a cage covered with cloth so that the investigator could not see the tumor size. We started daily intratumoral treatment with 40 mg/kg CKS1. For the control group, the matching volume of water was treated intratumorally. The tumor size was measured by using a caliper, and the volume was calculated by using the formula 0.52 × (length) × (width)^2.

NGRKACLNPASPIVKKIIEKMLNS-NH2 [CKS1, Chemokinostatin-1]
cell proliferation (BrdU incorporation) (HUVECs): significantly attenuated cell proliferation | mitochondrial membrane potential (JC-1 fluorescence) (4T1 cells [1]): rapid switch of JC-1 emitted fluorescence from red to green | time to cell death (reduction in cell index) after treatment (4T1 murine TNBC cells): ≤ 1 h | release of LDH (4T1 cells [2]): released significant amounts of LDH | fraction of cells with activated caspases (caspase-3 or caspase-7): increased over time | time to release of cytosol (calcein) after treatment (4T1 cells [3]; 4T1 cells stained with calcein-AM, 100 µM, representative of N = 3): 15 to 30 min | fraction of cancer cells with damaged cell membrane (4T1 cells [3]; concentration significantly higher than the IC50 value): ~100% | cell membrane integrity by electron microscopy (4T1 cells [4]; 30 min): ruptured after 30 min | cell morphology by electron microscopy (4T1 cells [4]; 6 h): apoptotic morphology | tumor growth (tumor volume) (CT26 tumors): inhibited; also recorded: highly sensitive
